Measurements from ChEMBL document CHEMBL1142271, “New fused benzazepine as selective D3 receptor antagonists. Synthesis and biological evaluation. Part one: [h]-fused tricyclic systems” (Bioorg Med Chem Lett, 2008).

What was measured:
Format in all cases: ADME, organism-based
[1] = Blood clearance in rat; settings: whole blood
[2] = Half life in rat; settings: in vivo
[3] = Volume of distribution in rat; settings: in vivo
[4] = Oral bioavailability in rat; settings: in vivo
[5] = Ratio of drug level brain to blood in iv dosed rat after 1 hr; settings: read-out: BBR

Structure (SMILES): Cc1ccc2c(-c3nnc(SCCCN4CCc5cc6nc(C)sc6cc5CC4)n3C)cccc2n1
- clearance [1]: 2.04 L/h/kg
- half-life [2]: 2.2 h
- Vd [3]: 4.3 L/kg
- bioavailability [4]: 25%
- Kp at 1 h [5]: 4.4

Structure (SMILES): CCc1nc2cc3c(cc2o1)CCN(CCCSc1nnc(-c2ccc(C(F)(F)F)cc2)n1C)CC3
- clearance [1]: 2.88 L/h/kg
- half-life [2]: 1.1 h
- Vd [3]: 3.4 L/kg
- bioavailability [4]: 17%
- Kp at 1 h [5]: 3.1

Structure (SMILES): Cc1ccc2c(-c3nnc(SCCCN4CCc5cc6c(cc5CC4)C(=O)N(C(C)C)C6)n3C)cccc2n1
- clearance [1]: 2.16 L/h/kg
- half-life [2]: 1.5 h
- Vd [3]: 3.5 L/kg
- bioavailability [4]: 10%
- Kp at 1 h [5]: 0.2

Structure (SMILES): Cc1ncoc1-c1nnc(SCCCN2CCc3cc4nc(CC5CC5)oc4cc3CC2)n1C
- clearance [1]: 1.56 L/h/kg
- Vd [3]: 1.7 L/kg
- bioavailability [4]: 32%

Structure (SMILES): Cc1nc2cc3c(cc2o1)CCN(CCCSc1nnc(-c2ccc(C(F)(F)F)cc2)n1C)CC3
- clearance [1]: 3.72 L/h/kg
- half-life [2]: 1.5 h
- Vd [3]: 5.4 L/kg
- bioavailability [4]: 17%
- Kp at 1 h [5]: 2.9

Structure (SMILES): Cc1ccc2c(-c3nnc(SCCCN4CCc5cc6nc(CC7CC7)oc6cc5CC4)n3C)cccc2n1
- clearance [1]: 3 L/h/kg
- Vd [3]: 4.3 L/kg
- bioavailability [4]: 25%

Structure (SMILES): CCCc1nc2cc3c(cc2o1)CCN(CCCSc1nnc(-c2cccc4nc(C)ccc24)n1C)CC3
- clearance [1]: 3.72 L/h/kg
- bioavailability [4]: 6%

Structure (SMILES): Cc1ccc2c(-c3nnc(SCCCN4CCc5cc6nc(C)oc6cc5CC4)n3C)cccc2n1
- clearance [1]: 2.82 L/h/kg
- half-life [2]: 1.7 h
- Vd [3]: 4.31 L/kg
- bioavailability [4]: 34%
- Kp at 1 h [5]: 5.4

Structure (SMILES): Cc1ccc2c(-c3nnc(SCCCN4CCc5cc6nc(N7CCCCC7)oc6cc5CC4)n3C)cccc2n1
- clearance [1]: 4.56 L/h/kg
- bioavailability [4]: 3%
- Kp at 1 h [5]: 5.1

Structure (SMILES): Cc1ccc2c(-c3nnc(SCCCN4CCc5cc6onc(C)c6cc5CC4)n3C)cccc2n1
- clearance [1]: 2.4 L/h/kg
- half-life [2]: 1.3 h
- Vd [3]: 3.3 L/kg
- bioavailability [4]: 22%
- Kp at 1 h [5]: 7.7

Structure (SMILES): Cc1ncoc1-c1nnc(SCCCN2CCc3cc4nc(C(C)C)oc4cc3CC2)n1C
- clearance [1]: 9.12 L/h/kg

Structure (SMILES): Cc1ccc2c(-c3nnc(SCCCN4CCc5cc6c(cc5CC4)N(S(C)(=O)=O)CCO6)n3C)cccc2n1
- clearance [1]: 1.92 L/h/kg
- half-life [2]: 1.2 h
- Vd [3]: 2.4 L/kg
- Kp at 1 h [5]: 0.2

Structure (SMILES): Cc1ccc2c(-c3nnc(SCCCN4CCc5cc6nc(C(C)C)oc6cc5CC4)n3C)cccc2n1
- clearance [1]: 4.86 L/h/kg

Structure (SMILES): Cc1ccc2c(-c3nnc(SCCCN4CCc5cc6nc(C(C)(C)C)oc6cc5CC4)n3C)cccc2n1
- clearance [1]: 8.22 L/h/kg

Structure (SMILES): CCc1nc2cc3c(cc2o1)CCN(CCCSc1nnc(-c2cccc4nc(C)ccc24)n1C)CC3
- clearance [1]: 3.42 L/h/kg
- half-life [2]: 1.6 h
- Vd [3]: 5.1 L/kg
- bioavailability [4]: 31%

Structure (SMILES): Cc1ccc2c(-c3nnc(SCCCN4CCc5cc6nc(C(F)(F)F)oc6cc5CC4)n3C)cccc2n1
- clearance [1]: 1.2 L/h/kg
- half-life [2]: 3.3 h
- Vd [3]: 5 L/kg
- bioavailability [4]: 31%
- Kp at 1 h [5]: 2.8

Structure (SMILES): Cc1ccc2c(-c3nnc(SCCCN4CCc5cc6nc(N(C)C)oc6cc5CC4)n3C)cccc2n1
- clearance [1]: 1.74 L/h/kg
- half-life [2]: 1.6 h
- Vd [3]: 2.8 L/kg
- bioavailability [4]: 45%
- Kp at 1 h [5]: 1.1
